Data taken from patent US20250188457A1, “COMPOSITIONS AND METHODS FOR THE TREATMENT OF GLIOBLASTOMA BY INHIBITION OF THE TFPI2-CD51-STAT6 SIGNALING AXIS” (Northwestern University, priority 2023, published 2025).

B1: TFPI2 recombinant protein (tissue factor pathway inhibitor 2; BioVision, #7481-10) (ligand, UniProt P48307 23-235, looked up)
chain: DAAQEPTGNNAEICLLPLDYGPCRALLLRYYYDRYTQSCRQFLYGGCEGNANNFYTWEACDDACWRIEKVPKVCRLQVSVDDQCEGSTEKYFFNLSSMTCEKFFSGGCHRNRIENRFPDEATCMGFCAPKKIPSFCYSPKDEGLCSANVTRYYFNPRYRTCDAFTYTGCGGNDNNFVSREDCKRACAKALKKKKKMPKLRFASRIRKIRKKQF
notes: Bought recombinant protein added to microglia at 20 ng/ml; also called recombinant TFPI2; secreted TFPI2

What was measured:
[1] = system: mouse primary CD8+ T cells cocultured with SIM-A9 microglia; assay: Mouse microglia and CD8+ T cell co-culture, flow cytometry; format: cell-based; details: TFPI2 recombinant protein 20 ng/ml; AS1517499 25 nM
Method: Primary mouse CD8^+ T cells were isolated from the spleens of C57BL/6 mice using a CD8^+ T cell isolation kit (Miltenyi Biotec, #130-104-075) according to manufacturer's instructions. Isolated CD8^+ T cells were cultured in RPMI 1640 media (Gibco, #22400-089) containing 10% FBS, 50 μM 2-Mercaptoethanol (Sigma, #M7522), and 1:100 antibiotic-antimycotic. Then, primary mouse CD8^+ T cells were expanded by 30 U/ml mouse IL-2 (Miltenyi Biotec, #130-120-662) and activated by Dynabeads® mouse T-activator CD3/CD28 (Gibco, #11456D) at bead-to-cell ratio of 1:1 before analysis and co-culture studies. For membrane protein staining, the single-cell suspensions were washed with PBS and then incubated with fixable viability dye (Invitrogen, #5211229035) on ice for 10 min. Following washing with PBS, cells were incubated with the anti-CD16/CD32 cocktail (BioLegend, #103132) in 2% BSA PBS to block Fc receptors for 30 min on ice. […] Samples were read in BD FACSymphony flow cytometer and analyzed in FlowJo v10.8.1. […] Then cell suspensions were rewashed in permeabilization buffer and read in BD FACSymphony flow cytometer.

[2] = system: GSC262, GSC23 and GSC20 cells; assay: Immunoblot for CD133 and SOX2 in GSCs; format: cell-based, human; details: TFPI2 recombinant protein at indicated concentrations for 24 hrs
Method: The protein expression in cells was determined by western blotting analysis (Ref. 61; incorporated by reference in its entirety). Cells were homogenized in RIPA lysis buffer containing phosphatase/protease cocktail inhibitors (Cell Signaling Technology, #5870). The protein concentration was determined by BCA Protein Assay Kit (Thermo Fisher Scientific, #P123225). Protein solution was mixed with the Leammli sample buffer and heated at 95° C. before loading to SurePAGE gels (GenScript, #M00653). The gels were run at a constant voltage of 80 V and then transferred to 0.2 μm nitrocellulose membrane (Bio-Rad, #1620112) using the Trans-Blot Turbo system (Bio-Rad) with a preprogrammed standard protocol for 30 min. Nitrocellulose membrane was incubated with 5% dry milk to block any unspecific staining. […]

| Molecule | decrease of CD8+ T cell viability by TFPI2-polarized microglia [1] | reduction of the percentage of CD8+CD69+ and CD8+IFNγ+ T cells by TFPI2-treated microglia [1] | expression of stemness-associated factors CD133 and SOX2 [2] |
| --- | --- | --- | --- |
| NC(=O)c1cnc(NCCc2ccc(O)c(Cl)c2)nc1NCc1ccccc1 [AS1517499] | negated | prevented | – |
| B1 | – | – | increased |
